What is called GI50 is the concentration giving 50% growth inhibition. Read a high GI50 as less potent growth inhibition. One may read the IC50 as the concentration needed to halve the response being measured.

Structures are written as SMILES. A value given as a limit tells only on which side of the number the result lay.

The subject of data set [1] is 34 human cancer cell lines. In words: In vitro cell growth assay, Sulphorhodamine B (SRB). It counts as cell-based. To be noted: 48 h exposure. How it is done:
Cell proliferation was evaluated by Sulphorhodamine B (SRB) assay where the amount of dye bound to the cells after staining gives a measure of cell growth. Refer to: JNCI, vol 83, No. 11, Jun. 5, 1991, which is incorporated herein by reference.
Briefly, cells (34 human cancer cell lines represented by bladder, breast, CNS, colon, epidermoid, lung, ovarian, melanoma, prostate, renal and uterine cancers) were seeded on a 96-well cell culture plates at a concentration of 10,000 cells per well and incubated at 37 degree C. in a CO2 incubator. Twenty-four hours later, cells were treated with different concentrations of […] dissolved in DMSO to a final concentration of 0.05% in the culture medium and exposed for 48 h. Cells were fixed by adding ice-cold 50% trichloroacetic acid (TCA) and incubating for 1 h at 4° C. The plates were washed with distilled water, air dried and stained with SRB solution (0.4% wt/vol in 1% Acetic acid) for 10 min at room temperature. Unbound SRB was removed by washing thoroughly with 1% acetic acid and the plates were air-dried. The bound SRB stain was solubilized with 10 mM Tris buffer, and the optical densities were read on a spectrophotometric plate reader at a single wavelength of 515 nm. […] From the optical densities the percentage growths were calculated using the following formulae: […]

Data set [2] relates to Human bone marrow mononuclear cells. Description: Human bone marrow assay (CFU-GM colonies). To be noted: human. The data set is classed as cell-based. As to the method: Methocult.TM. GF (Cat No: H4534, Poietics, Biowhittakar, USA) medium comprising Methycellulose in iscove's MDM, Fetal bovine serum, Bovine serum albumin, 2-Mercaptoethanol, L-Glutamine, rhStem cell factor, rhGM-CSF and rhIL-3 was used for the assay. Human bone marrow mononuclear cells (Cat No. 2M-125C, Poietics, Biowhittakar, USA) were mixed with Methocult GF and the cell density was adjusted to 3×10^5 cells/ml. From this preparation, 500 μL aliquots were made and […] of 20× drug solution or vehicle was added to each aliquot and mixed thoroughly. 100 μL of clonogenic medium was plated into each well and the plates were allowed to gel at 4° C. for 15 minutes. Plates were incubated at 37 degree C. in a fully humidified atmosphere of 5% CO2 in an incubator for 14 days. CFU-GM colonies were counted under an inverted microscope as aggregates of 50 cells or more. The percentage colony inhibition was calculated using the following formula: 100−[(number of colonies in drug treated wells/Number of colonies in control wells)×100].

Data set [3] relates to Saos-2 cells over expressing functional BCRP#4. Description: cells. The settings on record: Homo sapiens, SAOS-2, 144 h, read-out: BCRP mut#4 (IC50 (nM)). It counts as cell-based, human. As to the method:
(§1) The anticancer effect of 5(S)-(2′-hydroxyethoxy)-20(S)-camptothecin & 5(R)-(2′-hydroxyethoxy)-20(S)-camptothecin were evaluated versus the racemate 5(RS)-(2′-hydroxyethoxy)-20(S)-camptothecin on Saos-2 cells over expressing functional BCRP#4 and non-functional BCRP mut#10. The human osteosarcoma cell line, Saos-2, was obtained from ATCC (American Type Culture Collection, Cat#HTB-85, Manassas, Va.) and were maintained in DMEM containing 10% fetal bovine serum, 1% penicillin/streptomycin, and 2 mM glutamine. Saos-2 cells were transfected with either BCRP#4 to over express functional BCRP or BCRP#10 to over express non-functional BCRP transporter. The cells were plated in 96-well plates at a density of 1000 cells per each well in a 0.1 ml of medium and allowed to attach overnight. The next morning the medium was gently aspirated and serial dilutions of the compounds to be tested were added. The cells were incubated at 37° C. in a 5% CO2 incubator. After 6 days of exposure to the test drugs, 10µl of Alamar blue was added aseptically to each well and the plates were returned to the incubator for 6 hr. The amount of the fluorescent dye produced was measured on a Cytofluor.RTM. 2300 (Millipore, Bedford, Mass.) using an excitation wavelength of 530 nm and emission wavelength of 590 nm. The relative fluorescence units obtained were used to calculate the percentage growth at each concentration in relation to the untreated control values. From the percentage growth values the IC50 (inhibitory concentration required to inhibit the cell growth by 50% compared to control cells growth) values were derived.

Data set [4] concerns Saos-2 cells over expressing non-functional BCRP mut#10. Description: cells. The settings on record: Homo sapiens, SAOS-2, 144 h, read-out: BCRP mut#10 (IC50 (nM)). It counts as cell-based, human. How it is done:
as §1

Turning to `CC[C@@]1(O)C(=O)OCc2c1cc1n(c2=O)[C@H](OCCO)c2cc3ccccc3nc2-1` [5(R)-(2′-hydroxyethoxy)-20(S)-camptothecin, reference compound], in data set [1], growth was halved (GI50) at 14600 nM. Also, the “Safety Margin GI90/GI50” value in data set [2] is recorded as 0.06. In addition, the IC50 in data set [3] is > 2000 nM; in data set [4], 1300 nM.

(Values after patent publication US20110177161A1, “PHARMACEUTICAL COMPOSITIONS OF [5(S)-(2'-HYDROXYETHOXY)-20(S)-CAMPTOTHECIN” (DR. REDDY'S LABORATORIES LIMITED, priority 2007, published 2011).)
